Earlier results on one molecule are cited in patent US7205435B2 (priority 2001, dated 2007).

SMILES strings stand for the structures.

This series concerns mouse phrenic nerve. The conditions noted are these: in vivo.

As to `CC(C)C[C@H](NP(=O)(O)O[C@@H]1O[C@@H](C)[C@H](O)[C@@H](O)[C@H]1O)C(=O)N[C@@H](Cc1c[nH]c2ccccc12)C(=O)O` [phosphoramidon], the effective dose is recorded as 0.2 mM.
